Assay results as given in patent publication US20090143279A1 (priority 2007, published 2009).
Where two headings read alike, the source gives them in different places.

How the values were obtained:
[1] = test system: mitochondrial membrane potential; assay type: cell-based, mouse
reactive oxygen species = assay type: cell-based, mouse
OXPHOS gene expression = assay type: cell-based, mouse
nuOXPHOS transcripts = assay type: cell-based, mouse
mtOXPHOS transcripts = assay type: cell-based, mouse
cytochrome c = assay type: cell-based, mouse
[2] = test system: cellular dehydrogenase activity
[3] = composite Z-score vs DMSO wells, Conc 20 μM
[4] = normalized composite Z-score vs mock-treated (DMSO) wells, Conc 20 μM
[5] = composite Z-score vs mock-treated (DMSO) wells, Conc 20 μM
[6] = Conc 16.24 μM, normalized score vs mock-treated (DMSO) wells
[7] = 20 μM, composite Z-score vs DMSO
[8] = composite Z-score vs DMSO, Conc 20 μM

SMILES: Cn1cnc2c1c(=O)[nH]c(=O)n2C [theobromine]
- ΔΨm [1, 3]: −0.847
- ROS (reactive oxygen species; [3]): 0.179
- GE-HTS (OXPHOS gene expression; [3]): −0.561
- nucOX (nuOXPHOS transcripts; [3]): −0.449
- mitoOX (mtOXPHOS transcripts; [3]): −0.609
- cyt c (cytochrome c): 0.007
- cyt c (cytochrome c; [3]): −0.026
- Viability (C2C12 myotubes; [3]): −0.264
- MTT [2, 3]: −0.982

SMILES: OC[C@H]1O[C@@](CO)(O[C@H]2O[C@H](CO)[C@@H](O)[C@H](O)[C@H]2O)[C@@H](O[C@H]2O[C@H](CO)[C@@H](O)[C@H](O)[C@H]2O)[C@@H]1O [melezitose]
- ΔΨm [1, 4]: −0.605
- ROS (reactive oxygen species; [4]): −0.125
- GE-HTS (OXPHOS gene expression; [4]): −0.502
- nucOX (nuOXPHOS transcripts; [4]): 0.054
- mitoOX (mtOXPHOS transcripts; [4]): −1.553
- cyt c (cytochrome c; [4]): 0.284
- Viability (C2C12 myotubes; [4]): −0.843
- MTT [2, 4]: −0.968

SMILES: CC1(C)CC[C@]2(C(=O)O)CC[C@]3(C)C(=CC[C@@H]4[C@@]5(C)CC[C@H](O)C(C)(C)[C@@H]5CC[C@]43C)[C@@H]2C1 [oleanoic acid]
- ΔΨm [1, 5]: −0.910
- ROS (reactive oxygen species; [5]): −0.144
- GE-HTS (OXPHOS gene expression; [5]): −1.379
- nucOX (nuOXPHOS transcripts; [5]): −1.408
- mitoOX (mtOXPHOS transcripts; [5]): −1.014
- cyt c (cytochrome c; [5]): 0.754
- Viability (C2C12 myotubes; [5]): 0.492
- MTT [2, 5]: −0.720

SMILES: C=C1c2cccc(O)c2C(=O)C2=C(O)[C@]3(O)C(=O)C(C(N)=O)=C(O)[C@@H](N(C)C)[C@@H]3[C@@H](O)[C@H]12 [methacycline, reference compound]
- ΔΨm [1, 3]: −1.616
- ROS (reactive oxygen species; [3]): 1.083
- GE-HTS (OXPHOS gene expression; [3]): −0.340
- nucOX (nuOXPHOS transcripts; [3]): −0.600
- mitoOX (mtOXPHOS transcripts; [3]): 0.258
- cyt c (cytochrome c): 0.020
- cyt c (cytochrome c; [3]): 0.723
- Viability (C2C12 myotubes; [3]): −1.645
- MTT [2, 3]: −1.744

SMILES: Cc1cc(O)cc(O)c1C(=O)O [orsellinic acid]
- ΔΨm [1, 5]: −0.846
- ROS (reactive oxygen species; [5]): 1.236
- GE-HTS (OXPHOS gene expression; [5]): −0.348
- nucOX (nuOXPHOS transcripts; [5]): −0.350
- mitoOX (mtOXPHOS transcripts; [5]): −0.333
- cyt c (cytochrome c; [5]): −0.015
- Viability (C2C12 myotubes; [5]): −0.320
- MTT [2, 5]: −1.311

SMILES: CC1=CC(=O)C2=C(C)CC[C@@H]3[C@H](OC(=O)[C@H]3C)[C@@H]12 [leucomisine]
- ΔΨm (composite Z-score) [1, 6]: 0.151
- ROS (composite Z-score) (reactive oxygen species; [6]): 0.368
- GE-HTS (composite Z-score) (OXPHOS gene expression; [6]): −0.450
- nucOX (composite Z-score) (nuOXPHOS transcripts; [6]): −0.405
- mitoOX (composite Z-score) (mtOXPHOS transcripts; [6]): −0.470
- cyt c (composite Z-score) (cytochrome c; [6]): −0.568
- Viability (composite Z-score) (C2C12 myotubes; [6]): −0.439
- MTT (composite Z-score) [2, 6]: −1.034

SMILES: Fc1ccc(C(c2ccccc2)(c2ccccc2F)n2ccnc2)cc1 (centres unmarked) [flutrimazole]
- ΔΨm [1, 7]: −0.429
- ROS (reactive oxygen species; [7]): 0.781
- GE-HTS (OXPHOS gene expression; [7]): −0.763
- nucOX (nuOXPHOS transcripts; [7]): −0.592
- mitoOX (mtOXPHOS transcripts; [7]): −0.915
- cyt c (cytochrome c; [7]): 0.904
- Viability (C2C12 myotubes; [7]): 0.858
- MTT [2, 7]: −0.356

SMILES: COC[C@]12CN(C=O)[C@@H]3[C@@H]4[C@H](OC)[C@H]1[C@@]3([C@@H](OC)C[C@H]2O)[C@@H]1C[C@@]2(O)[C@H](OC(=O)c3ccccc3)[C@@H]1[C@]4(OC(C)=O)[C@@H](O)[C@@H]2OC [oxonitine]
- ΔΨm [1, 5]: −1.019
- ROS (reactive oxygen species; [5]): −0.167
- GE-HTS (OXPHOS gene expression; [5]): −0.636
- nucOX (nuOXPHOS transcripts; [5]): −0.938
- mitoOX (mtOXPHOS transcripts; [5]): 0.147
- cyt c (cytochrome c; [5]): 0.394
- Viability (C2C12 myotubes; [5]): −1.338
- MTT [2, 5]: −1.730

SMILES: C[C@@]12CCc3occc3[C@H]1CC[C@@]13C[C@@H](CC[C@H]12)[C@@](O)(CO)C3 [cafestol]
- ΔΨm [1, 8]: 1.283
- ROS (reactive oxygen species; [8]): 0.832
- GE-HTS (OXPHOS gene expression; [8]): −0.833
- nucOX (nuOXPHOS transcripts; [8]): −0.385
- mitoOX (mtOXPHOS transcripts; [8]): −1.543
- cyt c (cytochrome c; [8]): 1.374
- Viability (C2C12 myotubes; [8]): 0.025
- MTT [2, 8]: 1.124

SMILES: CC1(C)[C@@H](O[C@H]2O[C@H](C(=O)O)[C@@H](O)[C@H](O)[C@H]2O[C@@H]2O[C@H](C(=O)O)[C@@H](O)[C@H](O)[C@H]2O)CC[C@]2(C)[C@H]3C(=O)C=C4[C@@H]5C[C@@](C)(C(=O)O)CC[C@]5(C)CC[C@@]4(C)[C@]3(C)CC[C@@H]12 [glycyrrhizic acid]
- ΔΨm [1, 8]: −0.606
- ROS (reactive oxygen species; [8]): 0.578
- GE-HTS (OXPHOS gene expression; [8]): −0.424
- nucOX (nuOXPHOS transcripts; [8]): −0.227
- mitoOX (mtOXPHOS transcripts; [8]): −0.753
- cyt c (cytochrome c; [8]): 0.339
- Viability (C2C12 myotubes; [8]): 0.254
- MTT [2, 8]: −0.746

SMILES: COc1ccc2oc3ccccc3c(=O)c2c1 [2-methoxyxanthone]
- ΔΨm [1, 8]: 0.540
- ROS (reactive oxygen species; [8]): 1.398
- GE-HTS (OXPHOS gene expression; [8]): −0.467
- nucOX (nuOXPHOS transcripts; [8]): −0.710
- mitoOX (mtOXPHOS transcripts; [8]): 0.165
- cyt c (cytochrome c; [8]): 1.007
- Viability (C2C12 myotubes; [8]): −0.428
- MTT [2, 8]: −1.044

SMILES: CC1(C)S[C@@H]2[C@H](NC(=O)C(C(=O)O)c3ccccc3)C(=O)N2[C@H]1C(=O)O (some centres unmarked) [carbenicillin]
- ΔΨm [1, 7]: 0.298
- ROS (reactive oxygen species; [7]): 2.042
- GE-HTS (OXPHOS gene expression; [7]): −0.869
- nucOX (nuOXPHOS transcripts; [7]): −0.835
- mitoOX (mtOXPHOS transcripts; [7]): −0.823
- cyt c (cytochrome c; [7]): −0.074
- Viability (C2C12 myotubes; [7]): −0.524
- MTT [2, 7]: −0.565
